In patent US20050208058A1, “Compositions and methods for modulating cell division” (priority 2003, published 2005):
d = 2'-deoxy (DNA)

Tests used:
Assay type in all cases: cell-based, human
RPE1 cells = assay: FACS of nocodazole shift with kinase inhibitors and siGCP3 (p38 dependence); settings: FIG. 7
Procedure: (§1) For flow cytometry (i.e., fluorescence-activated cell sorter or FACS) experiments, siRNAs were delivered to cells as described above, and were incubated for 50-70 hours. To synchronize cells, nocodazole was added to the cells to a concentration of 5 μg/mL for 12 hours. Cells were stained with propidium iodide and analyzed by flow cytometry (FACSCAN; Becton Dickinson) using FLOJO® software (Tree Star, Inc., Ashland, Oreg.).
The following experiment was performed to test if p38, an upstream component of p53 signaling, is required for the centrosomal cell cycle arrest phenotype described herein. The following inhibitors were added to RPE1 cells 1 hour prior to siRNA treatment at the indicated concentrations: SB203580 (p38 inhibitor) 40 μM, SB202190 (p38 inhibitor) 10 μM, and PD98059 (MAPK inhibitor) 50 μM. All inhibitors were obtained from Calbiochem and dissolved in DMSO. siRNA treatment and FACS analysis was performed as described in Example 2.

RPE cells [1] = assay: CFDA-SE labeling cell division assay; settings: during the 72 hours following siRNA treatment; FIG. 4
Source text: RPE cells were transfected with siRNA directed to pericentrin A/B or lamin (control) as described in Example 2. Immediately prior to siRNA transfection cells were labeled with a succinimidyl ester of carboxyfluorescein diacetate (CFDA-SE from Molecular Probes, Eugene, Oreg.) according to manufacturers instructions. CFDA-SE is a fluorescent marker that spontaneously and irreversibly couples to free amines on intracellular and cell-surface proteins. When a cells divides, CFDA-SE labeling is inherited equally by daughter cells, which are therefore half as fluorescent as the parent cell. Cells were prepared for and analyzed by fluorescence microscopy as described in Example 1.

RPE cells [2] = assay: BrDU incorporation after siRNA treatment and nocodazole synchronization; settings: relative to control cells (siRNA to lamin), after nocodazole release; FIG. 2A
Procedure: To further study the effects of silencing centrosomal genes, the following cell cycle experiments were performed using RPE cells. In immunofluorescence experiments, cells were delivered by OLIGOFECTAMINE in a media solution containing between 1-100 nanomolar concentration of siRNAs. After 4 hours of incubation with lipofectamine, cells were washed, and cell cycle progression was assayed by (i) treating cells with 5-Bromo-2′-deoxyuridine (BrDU from Sigma, St Louis, Mo.) for 24 hours and staining for BrDU or (ii) staining cells with antibody to Ki-67 (BD Biosciences) according to manufacturer's instructions. BrDU treatment and staining were performed as follows: after 50-70 hours incubation with siRNA, BrDU was added to cells at a final concentration of 5 μg/ml. Cells were fixed in −20° C. methanol and then treated with 2N HCL at 22° C. for 30 minutes, incubated with 1:500 mouse anti-BrdU antibody (Becton Dickinson, Palo Alto, Calif.), and labeled with 1:1,000 goat FITC-mouse antibody (Molecular Probes, Inc.). Cells were also treated with 4′,6-diamidino-2-phenylindole (DAPI) (Molecular Probes) according to the manufacturer's instructions. Cells were prepared, imaged, and the resulting images were deconvolved as described in Example 1.
Upon release from nocodazole treatment, proliferating cells typically resume cell cycle progression. Chromosomal DNA in the cells was imaged using DAPI (faint ghost-like staining) and/or BrDU (brighter staining). Although DAPI can be used to visualize DNA at any stage of the cell cycle, BrDU is only incorporated into newly synthesized DNA only during S-phase. Thus, BrDU incorporation can be used as a marker of cells that progress through at least one S-phase of the cell cycle. Control cells in this experiment were treated with siRNA to lamin.

RPE cells [3] = assay: Flow cytometry (FACS) of nocodazole-induced shift from G1 to G2/M peak after siRNA treatment; settings: siRNA 50-70 hours, nocodazole 5 μg/mL 12 hours; FIG. 3A, FIG. 8
Procedure: as §1
In another approach to evaluating the effect requirement for centrosomal gene products, fluorescence assisted cell sorting (flow cytometry or FACS) analysis was performed as described in Gromley et al., J. Cell Biol., 161:535-545 (2003). Briefly, cells were treated with indicated siRNA for at least 50-70 hours, unless otherwise indicated. Cells were synchronized by adding nocodazole to 5 μg/mL for 12 hours prior to cell collection. Cells were collected, fixed in methanol, stained with propidium iodide, and analyzed by flow cytometry (FACSCAN®;Becton Dickinson) using FLOJO® software (Tree Star, Inc.).
FIG. 3A is a graph showing the effects of depleting the indicated centrosomal gene products by siRNA treatment. The left side of the graph depicts the FACS results for treated cells before the addition of nocodazole (-noc). The major fluorescence peak in (-noc) cells is the G1 peak, (i.e., lower DNA fluorescence). The right side of the graph depicts the results for cells after nocodazole treatment (+noc). […] This may be due to inefficient silencing caused by the siRNAs used.
The ability of a number of centrosomal genes to inhibit cell cycling of RPE1 cells was tested by treating cells with siRNAs and performing FACS analysis as described in Example 2.

cdc14A = assay: Anti-cdc14A immunofluorescence intensity in siRNA-treated cells; settings: 25 cells; FIG. 1C
Procedure: To test the ability of siRNAs to silence centrosomal gene products, cells were treated with siRNAs for 24 hours. Cells were diploid, telomerase-immortalized human retinal pigment epithelial (RPE1) cells (hTERT-RPE1s from Clontech, Palo Alto, Calif.) (see Morales et al., Nat Genet, 21:115-118, 1999). siRNAs directed to δ-tubulin (SEQ ID NO:2), γ-tubulin (SEQ ID NO:4), GCP2 (SEQ ID NO:5), GCP3(SEQ ID NO:6), cNAP1 (SEQ ID NO:8), PCM1 (SEQ ID NO:9), ninein (SEQ ID NO:21), NEK2a (SEQ ID NO:10), centrin2 (SEQ ID NO:12), CDC14A (SEQ ID NO:13), gapcena (SEQ ID NO:15), nemo (SEQ ID NO:16), pericentrin (SEQ ID NO:23), lamin A/C (CUGGACUUCCAGAAGAACA, SEQ ID NO: 24) zyxin (UGUGGCUGUCAACGAACUC, SEQ ID NO:25), and p53 (GGACAAGGGUUGGGCUGGG, SEQ ID NO:26) were made as complementary single stranded 19-mer siRNAs with 3′ dTdT overhangs (Dharmacon Inc., Lafayette, Colo.), deprotected, annealed and delivered into cells using OLIGOFECTAMINE® from Invitrogen (Carlsbad, Calif.). Nucleotides were delivered in media containing up to 100 nanomolar concentrations of siRNAs. […]
FIG. 1C is a histogram quantifying anti-cdc14A immunofluorescence observed in 25 cells treated with (i) siRNA to CDC14 (siCDC14) or (ii) control siLamin.

δ-tubulin = assay: Immunofluorescence of centrosomal δ-tubulin after siRNA treatment; settings: vs lamin control; FIG. 1D
Procedure: To test the ability of siRNAs to silence centrosomal gene products, cells were treated with siRNAs for 24 hours. Cells were diploid, telomerase-immortalized human retinal pigment epithelial (RPE1) cells (hTERT-RPE1s from Clontech, Palo Alto, Calif.) (see Morales et al., Nat Genet, 21:115-118, 1999). siRNAs directed to δ-tubulin (SEQ ID NO:2), γ-tubulin (SEQ ID NO:4), GCP2 (SEQ ID NO:5), GCP3(SEQ ID NO:6), cNAP1 (SEQ ID NO:8), PCM1 (SEQ ID NO:9), ninein (SEQ ID NO:21), NEK2a (SEQ ID NO:10), centrin2 (SEQ ID NO:12), CDC14A (SEQ ID NO:13), gapcena (SEQ ID NO:15), nemo (SEQ ID NO:16), pericentrin (SEQ ID NO:23), lamin A/C (CUGGACUUCCAGAAGAACA, SEQ ID NO: 24) zyxin (UGUGGCUGUCAACGAACUC, SEQ ID NO:25), and p53 (GGACAAGGGUUGGGCUGGG, SEQ ID NO:26) were made as complementary single stranded 19-mer siRNAs with 3′ dTdT overhangs (Dharmacon Inc., Lafayette, Colo.), deprotected, annealed and delivered into cells using OLIGOFECTAMINE® from Invitrogen (Carlsbad, Calif.). Nucleotides were delivered in media containing up to 100 nanomolar concentrations of siRNAs.
Commercial antibodies to the following proteins were used in this study: lamin A/C (Cell Signaling Technology, Beverly, Mass.), δ-, ε-, or γ-tubulin (Sigma-Aldrich, St. Louis, Mo.), zyxin (Santa Cruz Biotechnology, Santa Cruz, Calif.), Nek2A (Zymed, South San Francisco, Calif.), p53 (Calbiochem, San Diego, Calif.). […]

Molecule: COc1cccc(-c2cc(=O)c3ccccc3o2)c1N [map kinase inhibitor, PD98059]
- effect of inhibitor alone on nocodazole-induced shift from G1 to G2/M peak (RPE1 cells; SB203580 40 μM, SB202190 10 μM, PD98059 50 μM): did not inhibit the nocodazole-induced shift
- effect of inhibitor on siGCP3-induced cell cycle arrest (RPE1 cells; inhibitor added 1 hour prior to siGCP3, SB203580 40 μM, SB202190 10 μM, PD98059 50 μM): did not affect siGCP3's ability to cause cell cycle arrest

Molecule: CUGGACUUCCAGAAGAACA (siRNA; RNA, 3' dTdT, backbone not given here) [lamin, control siRNA directed to lamin A/C, reference compound]
- cells that never divided (RPE cells [1]): ~7%

Molecule: GAGCAAAAGCAGGAGAUCC (siRNA; RNA, 3' dTdT, backbone not given here) [centrin, siRNA directed to centrin2]
- incorporation of BrDU into chromosomal material (RPE cells [2]): clearly inhibited incorporation of BrDU

Molecule: AAGAGAAGCAGAUGCUGCA (siRNA; RNA, 3' dTdT, backbone not given here) [siGCP3, siRNA directed to GCP3]
- inhibition of nocodazole-induced shift from G1 peak to G2/M peak (RPE cells [3]): prevented nocodazole-induced shift
- effect of siRNA on nocodazole-induced shift from G1 to G2/M peak (RPE1 cells; siRNA alone): inhibited this shift

Molecule: GUCCCCCAAACAGAGAAAC (siRNA; RNA, 3' dTdT, backbone not given here) [PCM-1, siRNA directed to PCM1]
- inhibition of nocodazole-induced shift from G1 peak to G2/M peak (RPE cells [3]): prevented nocodazole-induced shift

Molecule: ACUUCGCCUGGUCCAACUU (siRNA; RNA, 3' dTdT, backbone not given here) [GCP-5, siRNA directed to GCP5]
- inhibition of nocodazole-induced shift from G1 peak to G2/M peak (RPE cells [3]): prevented nocodazole-induced shift

Molecule: AGGGAACCAAGGAAAGGCA (siRNA; RNA, 3' dTdT, backbone not given here) [NEK, siRNA directed to NEK2]
- inhibition of nocodazole-induced shift from G1 peak to G2/M peak (RPE cells [3]): did not cause a pronounced inhibition of the shift
- incorporation of BrDU into chromosomal material (RPE cells [2]): less pronounced

Molecule: GCACAGUAAAUACCCACUA (siRNA; RNA, 3' dTdT, backbone not given here) [siCDC14, siRNA directed to CDC14A]
- cells displaying lower anti-cdc14A fluorescence intensity than the lowest control (siLamin treated) cell (cdc14A): 68%

Molecule: GCAGCUGAGCUGAAGGAGA (siRNA; RNA, 3' dTdT, backbone not given here) [pericentrin A/B, siRNA directed to both pericentrin A and pericentrin B]
- cells that never divided (RPE cells [1]): 40%

Molecule: GGUUCUGGAAACAACUGGG (siRNA; RNA, 3' dTdT, backbone not given here) [siδ-tubulin, siRNA directed to δ-tubulin]
- centrosomal δ-tubulin staining (δ-tubulin): reduced the number and/or fluorescence intensity of centrosomal staining

Molecule: UCUAUCCGAAAGCCCAGUC (siRNA; RNA, 3' dTdT, backbone not given here) [CNAP, siRNA directed to cNAP1]
- inhibition of nocodazole-induced shift from G1 peak to G2/M peak (RPE cells [3]): prevented nocodazole-induced shift
- incorporation of BrDU into chromosomal material (RPE cells [2]): clearly inhibited incorporation of BrDU

Molecule: UAUGAGCAUUGAGGCAGAG (siRNA; RNA, 3' dTdT, backbone not given here) [ninein]
- inhibition of nocodazole-induced shift from G1 peak to G2/M peak (RPE cells [3]): did not cause a pronounced inhibition of the shift
